In patent US7432302B2, “Composition containing polyamine transport inhibitor and use thereof” (MediQuest Therapeutics, Inc., priority 2001, dated 2008):
Where two headings read alike, the source gives them in different places.

Assays:
[1] = test system: epidermal ornithine decarboxylase activity; details: mice, 0.5% BHT in food for two weeks, UV radiation; cited from earlier work
[2] = test system: cell growth in the presence of DFMO; test: Growth inhibition assay in combination with DFMO; format: cell-based; details: for EC50: 144 h; for Ave EC50 Value: 0.5 µM SPD
Procedure: Medias were obtained from Mediatech, Inc. (Hemdon, Va.) and serums from Gibco BRL (Gaithersburg, Md.). 50 U/ml penicillin, 50 μg/ml streptomycin and 2 mM L-glutamine (all from Bio Whittaker, Walkersville, Md.) were included in all cultures. […] When cells were cultured with polyamines or ORI compounds, 1 mM aminoguanidine (AG; Sigma) was included to inhibit serum amine oxidase activity.

[3] = test system: polyamine transporter; test: Polyamine transport inhibition (3H-spermidine uptake, MDA-MB-231 cells); format: cell-based, human
Procedure: The Ki values were determined using double reciprocal Lineweaver-Burke plot analyses.

[4] = test system: cultured follicles; details: in culture media: DFMO 500 μM; N-butyl-1,3-diaminopropane 50 μM; cited from earlier work
[5] = target: T1, spermine synthase (Homo sapiens, UniProt P52788); details: cited from earlier work
T1 sequence (P52788 1-366): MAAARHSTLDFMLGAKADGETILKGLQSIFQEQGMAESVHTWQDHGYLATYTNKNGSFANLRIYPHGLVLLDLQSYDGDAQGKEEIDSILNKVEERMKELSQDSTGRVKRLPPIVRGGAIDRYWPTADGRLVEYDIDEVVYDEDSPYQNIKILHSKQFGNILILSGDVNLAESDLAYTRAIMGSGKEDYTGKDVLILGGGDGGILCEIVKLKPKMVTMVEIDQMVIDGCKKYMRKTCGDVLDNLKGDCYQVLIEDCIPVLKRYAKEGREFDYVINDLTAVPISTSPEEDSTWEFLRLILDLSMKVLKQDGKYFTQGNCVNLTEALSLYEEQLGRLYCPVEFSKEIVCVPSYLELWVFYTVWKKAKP

[6] = test system: ODC activity; details: at 4 to 5 hr after TPA treatment; cited from earlier work
[7] = target: T2, ODC (Rattus norvegicus, UniProt P09057); details: cited from earlier work
T2 construct: from tissue; host or cells: rat liver
T2 sequence (P09057 1-461): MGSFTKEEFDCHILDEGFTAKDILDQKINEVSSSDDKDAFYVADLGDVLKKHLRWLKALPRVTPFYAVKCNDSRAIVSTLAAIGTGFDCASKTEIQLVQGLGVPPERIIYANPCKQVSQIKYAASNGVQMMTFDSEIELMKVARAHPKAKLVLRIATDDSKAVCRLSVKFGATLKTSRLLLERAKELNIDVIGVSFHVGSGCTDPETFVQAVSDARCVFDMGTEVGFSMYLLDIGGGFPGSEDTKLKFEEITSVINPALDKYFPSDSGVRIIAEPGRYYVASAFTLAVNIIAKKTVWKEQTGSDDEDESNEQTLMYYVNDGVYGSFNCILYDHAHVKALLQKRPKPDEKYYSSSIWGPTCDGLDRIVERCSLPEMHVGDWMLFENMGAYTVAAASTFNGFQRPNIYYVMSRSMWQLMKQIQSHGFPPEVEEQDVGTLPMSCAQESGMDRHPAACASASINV

SMILES: Cc1cc(C(C)(C)C)c(O)c(C(C)(C)C)c1 [BHT, butylated hydroxytoluene]
- inhibition of measured ODC activity [1]: 70%

SMILES: CCCCCCCCCCCCCCCC(=O)NCCCC[C@H](N)C(=O)NCCCNCCCCNCCCN [IA4]
- potency in cell growth inhibition assay [2]: demonstrated potency
- EC50 ([2]; read-out: Ave EC50 Value): 130 nM
- EC50 ([2]; read-out: Ave EC50 value): 130 nM
- potency in transporter inhibition assay [3]: demonstrated potency

SMILES: CCCCNCCCN [N-butyl-1,3-diaminopropane]
- effect on the growth of cultured follicles [4]: no effect
- Ki [5]: 11.9 nM

SMILES: CCCCCCCCCCCCCC(=O)O[C@@H]1[C@@H](C)[C@@]2(O)[C@@H](C=C(CO)C[C@]3(O)C(=O)C(C)=C[C@@H]23)[C@@H]2C(C)(C)[C@]12OC(C)=O [TPA, 12-O-tetradecanoyl-phorbol-13-acetate]
- peak ODC activity greater than control [6]: 230 fold

SMILES: NCCCC(N)(CCl)C(=O)O (stereo not shown) [—CH2Cl]
- t1/2 ([7]; Table 1, at 100 μM): t1/2 = 22 min
- Ki value ([7]; Table 1 substrate analogs, apparent dissociation constant, rat liver enzyme): No satd kinetics
